Common to all, as to test: biochemical
Holding throughout (design): DiscoveRx KINOMEscan active site-directed competition binding; percent of control kinase bound to immobilised ligand

Experiment [1] deals with T1, PRKCE (Homo sapiens, UniProt Q02156).
T1 sequence (Q02156 1-737): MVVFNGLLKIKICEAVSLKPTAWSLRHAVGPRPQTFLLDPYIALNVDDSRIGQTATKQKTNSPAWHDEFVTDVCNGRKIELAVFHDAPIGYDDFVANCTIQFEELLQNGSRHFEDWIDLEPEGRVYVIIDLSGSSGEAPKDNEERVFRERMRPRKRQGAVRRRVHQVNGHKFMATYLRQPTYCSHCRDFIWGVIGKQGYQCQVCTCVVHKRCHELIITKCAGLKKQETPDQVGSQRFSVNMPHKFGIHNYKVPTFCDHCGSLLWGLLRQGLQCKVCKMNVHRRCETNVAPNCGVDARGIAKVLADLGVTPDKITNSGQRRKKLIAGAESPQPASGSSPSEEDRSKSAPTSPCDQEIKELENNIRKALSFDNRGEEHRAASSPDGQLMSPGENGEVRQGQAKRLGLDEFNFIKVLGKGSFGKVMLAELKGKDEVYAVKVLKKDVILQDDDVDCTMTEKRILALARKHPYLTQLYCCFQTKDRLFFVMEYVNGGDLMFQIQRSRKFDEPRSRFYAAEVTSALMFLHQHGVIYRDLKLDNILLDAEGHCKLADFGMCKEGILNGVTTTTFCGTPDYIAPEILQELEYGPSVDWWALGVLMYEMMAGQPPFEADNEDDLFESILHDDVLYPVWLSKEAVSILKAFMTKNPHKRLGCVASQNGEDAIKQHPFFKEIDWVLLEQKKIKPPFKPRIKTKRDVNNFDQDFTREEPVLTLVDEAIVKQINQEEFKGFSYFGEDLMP

Experiment [2] has as its target T2, FLT3(K663Q) (Homo sapiens, UniProt P36888, K663Q).
T2 sequence (P36888 1-993 K663Q): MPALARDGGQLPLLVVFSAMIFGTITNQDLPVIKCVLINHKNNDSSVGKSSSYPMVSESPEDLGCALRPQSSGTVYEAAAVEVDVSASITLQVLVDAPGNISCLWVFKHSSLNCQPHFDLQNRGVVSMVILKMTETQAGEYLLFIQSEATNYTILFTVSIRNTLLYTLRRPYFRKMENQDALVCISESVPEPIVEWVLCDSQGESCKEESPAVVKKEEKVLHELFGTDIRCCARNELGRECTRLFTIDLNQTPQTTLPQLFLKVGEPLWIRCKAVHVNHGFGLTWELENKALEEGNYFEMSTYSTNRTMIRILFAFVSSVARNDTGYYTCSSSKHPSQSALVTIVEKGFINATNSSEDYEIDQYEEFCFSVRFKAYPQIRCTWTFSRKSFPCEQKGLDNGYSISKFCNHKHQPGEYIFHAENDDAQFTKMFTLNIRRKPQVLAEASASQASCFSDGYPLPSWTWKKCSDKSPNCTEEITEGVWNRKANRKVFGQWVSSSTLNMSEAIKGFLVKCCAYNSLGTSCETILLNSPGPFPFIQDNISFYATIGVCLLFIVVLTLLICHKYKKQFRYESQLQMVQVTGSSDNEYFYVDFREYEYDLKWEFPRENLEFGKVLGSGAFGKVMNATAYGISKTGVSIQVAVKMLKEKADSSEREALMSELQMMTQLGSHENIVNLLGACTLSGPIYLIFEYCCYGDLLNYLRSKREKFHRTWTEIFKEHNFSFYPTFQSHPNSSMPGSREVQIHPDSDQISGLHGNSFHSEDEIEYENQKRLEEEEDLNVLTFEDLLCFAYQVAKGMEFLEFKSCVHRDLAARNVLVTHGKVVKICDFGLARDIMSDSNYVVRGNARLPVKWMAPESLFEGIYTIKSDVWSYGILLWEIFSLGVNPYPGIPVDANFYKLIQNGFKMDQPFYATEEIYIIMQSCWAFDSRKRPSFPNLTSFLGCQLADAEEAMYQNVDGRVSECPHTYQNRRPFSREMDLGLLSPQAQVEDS

In experiment [3] the target is T3, TLK1 (Homo sapiens, UniProt Q9UKI8).
T3 sequence (Q9UKI8 1-766): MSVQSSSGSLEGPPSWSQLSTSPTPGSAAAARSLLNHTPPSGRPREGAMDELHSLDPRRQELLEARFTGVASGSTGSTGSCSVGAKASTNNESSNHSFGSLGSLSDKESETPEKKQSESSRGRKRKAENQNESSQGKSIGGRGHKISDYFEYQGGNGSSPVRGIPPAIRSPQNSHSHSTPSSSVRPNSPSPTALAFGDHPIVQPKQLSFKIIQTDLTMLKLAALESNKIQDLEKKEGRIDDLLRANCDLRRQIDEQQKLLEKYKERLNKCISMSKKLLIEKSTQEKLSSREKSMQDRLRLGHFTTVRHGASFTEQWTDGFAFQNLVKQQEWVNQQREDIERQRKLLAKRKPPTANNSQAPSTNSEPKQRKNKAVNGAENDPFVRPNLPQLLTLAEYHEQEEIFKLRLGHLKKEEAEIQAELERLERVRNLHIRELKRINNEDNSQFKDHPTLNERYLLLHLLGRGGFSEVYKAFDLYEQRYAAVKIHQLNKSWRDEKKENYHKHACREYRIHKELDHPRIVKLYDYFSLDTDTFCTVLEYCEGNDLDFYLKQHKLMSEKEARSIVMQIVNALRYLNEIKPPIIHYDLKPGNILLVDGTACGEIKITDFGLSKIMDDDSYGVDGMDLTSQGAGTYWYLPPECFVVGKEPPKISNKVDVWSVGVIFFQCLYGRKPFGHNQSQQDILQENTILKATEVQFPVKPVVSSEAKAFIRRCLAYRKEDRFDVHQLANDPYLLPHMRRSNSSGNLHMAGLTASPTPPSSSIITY

The target of experiment [4] is FGR (Homo sapiens, UniProt P09769).
Sequence of FGR (P09769 whole entry): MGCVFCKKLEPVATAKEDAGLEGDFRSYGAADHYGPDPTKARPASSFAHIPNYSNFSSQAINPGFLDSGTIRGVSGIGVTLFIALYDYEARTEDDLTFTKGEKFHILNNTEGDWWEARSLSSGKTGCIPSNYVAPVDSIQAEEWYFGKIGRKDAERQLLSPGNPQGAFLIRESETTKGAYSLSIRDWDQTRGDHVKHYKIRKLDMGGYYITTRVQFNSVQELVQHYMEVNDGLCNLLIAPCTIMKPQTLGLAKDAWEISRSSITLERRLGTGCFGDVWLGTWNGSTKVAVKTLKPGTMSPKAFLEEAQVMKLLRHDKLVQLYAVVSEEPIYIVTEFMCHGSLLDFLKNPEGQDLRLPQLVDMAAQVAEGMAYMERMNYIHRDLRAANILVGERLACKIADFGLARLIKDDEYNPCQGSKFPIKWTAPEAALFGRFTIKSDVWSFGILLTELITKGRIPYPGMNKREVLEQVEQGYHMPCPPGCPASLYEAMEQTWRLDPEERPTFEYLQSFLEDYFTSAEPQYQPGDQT
The mark [5] stands for this setting: read-out: Niraparib (MK-4827) / %Ctrl @ 10000nM.
[6] abbreviates: read-out: Talazoparib (BMN 673) / %Ctrl @ 10000nM.
[7] abbreviates: read-out: Rucaparib / %Ctrl @ 10000nM, binding competition, % of control.
The mark [8] stands for this setting: read-out: Olaparib / %Ctrl @ 10000nM.

Consider 4 compounds from paper PMC7026418, “The kinase polypharmacology landscape of clinical PARP inhibitors” (Scientific Reports, 2020).

Molecules are shown by their SMILES. Like-named read-outs stand apart in the source and are kept apart here.

Take `NC(=O)c1cccc2cn(-c3ccc([C@@H]4CCCNC4)cc3)nc12` [Niraparib]: the percent of control binding at 10 µM in experiment [1] (setting [5]) was 100%; in experiment [2] (setting [5]) it was 75%; in experiment [3] (setting [5]), 85%; in experiment [4] (setting [5]), 85%.

In the case of `Cn1ncnc1[C@H]1c2n[nH]c(=O)c3cc(F)cc(c23)N[C@@H]1c1ccc(F)cc1` [Talazoparib], the percent of control binding at 10 µM in experiment [1] (setting [6]) was 93%; in experiment [2] (setting [6]), 91%; in experiment [3] (setting [6]), 99%; in experiment [4] (setting [6]) it was 99%.

In the case of `CNCc1ccc(-c2[nH]c3cc(F)cc4c3c2CCNC4=O)cc1` [Rucaparib], the results for the percent of control binding at 10 µM in experiment [1] (setting [7]), in experiment [3] (setting [7]) and in experiment [4] (setting [7]) were 74%, 94% and 96%, respectively. Moreover, in experiment [2] (binding competition, % of control), the “Rucaparib / %Ctrl @ 10000nM” value is 93%.

As to `O=C(c1cc(Cc2n[nH]c(=O)c3ccccc23)ccc1F)N1CCN(C(=O)C2CC2)CC1` [Olaparib], the percent of control binding at 10 µM in experiment [1] (setting [8]) came to 93%; in experiment [2] (setting [8]), 88%; in experiment [3] (setting [8]), 94%; in experiment [4] (setting [8]) it was 92%.
